Results taken from patent US9567641B2, “Combination therapy for the treatment of cancer using an anti-C-met antibody” (SAMSUNG ELECTRONICS CO., LTD., priority 2013, dated 2017).

Legend:
[1] = test system: HCC1806 breast cancer cells; assay: Cell viability, CellTiter Glo, combination with L3-1Y/IgG2 antibody; assay type: cell-based; conditions: 72 h
Description: The efficacy of the combination administration of ITGB3 siRNA and L3-1Y/IgG2 antibody was examined in a breast cancer cell line on which the anti-c-Met antibody alone has no effects. For this, HCC1806 (ATCC, CRL-2335) and HCC1954 (ATCC, CRL-2338) cells were used.
As a control group, All Negative control siRNA (Qiagen, cat. no. 1027281) was used, and as a target siRNA, a mixture of two kinds of siRNAs (see Table 7) that had effects during the screening was used. Transfection was carried out by the same procedures as Example 3.1 and after 24 hours, the cultured cells were treated with L3-1Y/IgG2 antibody at 0 ug/ml, 0.016 ug/ml, 0.08 ug/ml, 0.4 ug/ml, or 2 ug/ml. 72 hours later after the treatment, 100 uL of CellTiter Glo solution (Promega, G7572) was added to each well, which was allowed to stay at a room temperature for 30 min. The number of cells was counted via luminescence signals, which were recorded using Envision 2104 Multi-label Reader (Perkin Elmer).
To verify the effect of the combination therapy using ITGB3 inhibitor and anti-c-Met antibody in breast cancer cells on which the anti-c-Met antibody has no effects, HCC1806 (ATCC, CRL-2335) cells were used. The HCC 1806 cells are a cell line known to have high amounts of c-Met.
5000 cells of HCC1806 cells were seeded onto a 96-well plate, and 24 hours after, the plate was treated with L3-1Y/IgG2 antibody and an ITGB3 inhibitor, cilengitide (Merck KGaA, EMD 121974). 72 hours later after the treatment, a change in the number of cells was measured using CellTiter Glo assay. Cilengitide was treated at a fixed concentration of 10 uM, and the L3-1Y/IgG2 antibody was treated by ⅕ dilution each time starting from 2 ug/ml. For comparison, the same test was conducted using L3-1Y/IgG2 antibody alone.
The efficacy of combination administration was examined in a breast cancer cell line on which the anti-c-Met antibody has no effects. For this, HCC1806 (ATCC, CRL-2335) cells were used.
5000 HCC1806 cells were seeded onto a 96-well plate and 24 hours after, the plate was treated with L3-1Y/IgG2 antibody and an AKT inhibitor, MK-2206 (Merck & Co Inc) and 72 hours later after the antibody treatment, a change in the number of cells was measured using CellTiter Glo assay. MK-2206 was treated at a fixed concentration of 10 uM, and the L3-1Y/IgG2 antibody was treated by ⅕ dilution each time starting from 2 ug/ml. For comparison, the same test was conducted using L3-1Y/IgG2 antibody alone.

[2] = test system: MKN45 gastric cancer cell line with acquired resistance against L3-1Y/IgG2 antibody; assay: Cell viability, CellTiter Glo, resistance-acquired cell line; assay type: cell-based; conditions: 72 h
Description: To see whether the treatment RAF1 siRNA can overcome resistance acquired due to the repetitive treatment of an antibody, tests were carried out using MKN45 gastric cancer cell line which had been treated by L3-1Y/IgG2 antibody for 3 months or longer and acquired resistance against it. The resistance-acquired MKN45 gastric cancer cell line was prepared as follows: MKN45 cells (JCRB, JCRB0254) were treated with L3-1Y/IgG2 antibody in amounts being increased over 3 months or longer. The amount of L3-1Y/IgG2 antibody to be treated started from its initial treatment concentration of 1 ug/ml and was increased up to 10 ug/ml until resistance occurred. To confirm the acquisition of L3-1Y/IgG2 antibody resistance, the resistance-acquired clones were treated or not treated with L3-1Y/IgG2 antibody and then incubated, followed by CTG assays.
As a control group, All Negative control siRNA (Qiagen, cat. no. 1027281) was used, and as a target siRNA, a mixture of two kinds of siRNAs (see Table 7) that had effects during the screening was used. […]
(§1) 5000 cells of MKN45 cells which have acquired resistance against L3-1Y/IgG2 antibody were seeded onto a 96-well plate, and 24 hours after, the plate was treated with L3-1Y/IgG2 antibody and an ITGB3 inhibitor, cilengitide (Merck KGaA, EMD 121974). 72 hours later after the treatment, a change in the number of cells was measured using CellTiter Glo assay. The MKN45 cells which have acquired resistance against L3-1Y/IgG2 antibody were prepared referring to Example 4.3. Cilengitide was treated at a fixed concentration of 10 uM, and the L3-1Y/IgG2 antibody was treated by ⅕ dilution each time starting from 2 ug/ml. For comparison, the same test was conducted using L3-1Y/IgG2 antibody alone.
as §1, with “AKT” for “ITGB3”, “MK-2206” for “cilengitide”, “& Co Inc).” for “KGaA, EMD 121974).”, “MK-2206” for “Cilengitide”, “5” for “10”
To verify whether or not the resistance acquired by repetitive administration of anti-c-Met antibody can be overcome by BCL2L1 inhibition, L3-1Y/IgG2 antibody resistance acquired MKN45 cells, where the resistance against L3-1Y/IgG2 antibody is acquired by treating MKN45 gastric cancer cells (JCRB, JCRB0254) with the L3-1Y/IgG2 antibody for at least 3 months, were used. The L3-1Y/IgG2 antibody resistance acquired MKN45 gastric cancer cells were prepared referring to Example 4.3. […]

[3] = test system: L3-1Y/IgG2 antibody resistance acquired EBC1 lung cancer cells; assay: as above; assay type: cell-based; conditions: ABT-263 0.5 uM co-treated with L3-1Y/IgG2 (1/5 dilutions from 2 ug/ml), 72 h
Description: To verify whether or not the resistance acquired by repetitive administration of anti-c-Met antibody can be overcome by BCL2L1 inhibition, L3-1Y/IgG2 antibody resistance acquired EBC1 cells, where the resistance against L3-1Y/IgG2 antibody is acquired by treating EBC1 lung cancer cells (JCRB, JCRB0820) with the L3-1Y/IgG2 antibody for at least 3 months, were used. The L3-1Y/IgG2 antibody resistance acquired EBC1 lung cancer cells were prepared referring to Example 4.3.
5000 cells of the L3-1Y/IgG2 antibody resistance acquired EBC1 cells were seeded onto a 96-well plate and 24 hours after, the plate was treated with a BCL2 family inhibitor, ABT-263 (Abbott Laboratories) and 72 hours later after the antibody treatment, a change in the number of cells was measured using CellTiter Glo assay. ABT-263 was treated at a fixed concentration of 0.5 uM, and the L3-1Y/IgG2 antibody was treated by ⅕ dilution each time starting from 2 ug/ml.

[4] = test system: MKN45 gastric cancer cell line; assay: Cell viability, CellTiter Glo, combination with L3-1Y/IgG2 antibody; assay type: cell-based; conditions: ABT-263 5 uM co-treated with L3-1Y/IgG2 0.08 ug/ml, 72 h
c-Met = c-Met (Homo sapiens, UniProt P08581); assay: Affinity / specificity for c-Met; assay type: binding; conditions: expressed scFv
Sequence of c-Met (P08581 25-1390): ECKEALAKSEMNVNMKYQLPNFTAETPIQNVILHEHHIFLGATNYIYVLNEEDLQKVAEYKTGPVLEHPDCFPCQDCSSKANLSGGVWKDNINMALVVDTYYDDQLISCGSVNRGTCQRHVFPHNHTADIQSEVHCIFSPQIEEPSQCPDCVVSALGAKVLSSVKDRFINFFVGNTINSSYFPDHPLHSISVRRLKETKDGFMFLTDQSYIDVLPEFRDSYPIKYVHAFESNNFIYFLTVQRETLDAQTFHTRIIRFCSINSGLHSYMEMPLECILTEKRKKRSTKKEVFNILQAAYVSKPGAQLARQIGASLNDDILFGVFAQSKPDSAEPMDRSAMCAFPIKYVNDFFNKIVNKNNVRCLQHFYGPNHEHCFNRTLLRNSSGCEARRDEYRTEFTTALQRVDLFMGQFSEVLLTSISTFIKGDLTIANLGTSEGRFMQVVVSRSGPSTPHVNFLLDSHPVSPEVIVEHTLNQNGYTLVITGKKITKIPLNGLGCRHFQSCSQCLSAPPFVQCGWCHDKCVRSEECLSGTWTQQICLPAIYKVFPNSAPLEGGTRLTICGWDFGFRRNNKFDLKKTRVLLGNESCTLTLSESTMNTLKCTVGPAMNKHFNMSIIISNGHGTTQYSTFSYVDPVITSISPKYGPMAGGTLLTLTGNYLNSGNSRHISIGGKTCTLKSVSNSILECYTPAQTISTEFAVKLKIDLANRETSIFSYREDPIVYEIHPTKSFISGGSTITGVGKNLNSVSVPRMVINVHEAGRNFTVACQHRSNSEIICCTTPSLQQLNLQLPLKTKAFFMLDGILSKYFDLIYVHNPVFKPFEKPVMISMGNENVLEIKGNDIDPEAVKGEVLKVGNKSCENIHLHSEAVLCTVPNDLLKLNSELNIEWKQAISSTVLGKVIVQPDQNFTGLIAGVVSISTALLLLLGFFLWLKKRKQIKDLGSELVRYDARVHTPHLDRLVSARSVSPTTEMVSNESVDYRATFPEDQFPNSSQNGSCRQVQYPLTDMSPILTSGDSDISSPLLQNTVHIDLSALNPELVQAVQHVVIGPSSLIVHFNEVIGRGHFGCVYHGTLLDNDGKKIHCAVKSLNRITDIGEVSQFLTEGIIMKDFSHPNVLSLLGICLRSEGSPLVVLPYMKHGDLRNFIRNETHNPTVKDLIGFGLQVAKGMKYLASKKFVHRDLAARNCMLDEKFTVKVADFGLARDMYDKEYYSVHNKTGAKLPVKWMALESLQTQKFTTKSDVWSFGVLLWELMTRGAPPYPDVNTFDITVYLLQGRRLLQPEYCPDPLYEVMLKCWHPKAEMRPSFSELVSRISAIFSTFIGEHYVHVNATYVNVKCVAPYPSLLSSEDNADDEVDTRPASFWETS

[5] = cilengitide 10 uM co-treated with L3-1Y/IgG2 (1/5 dilutions from 2 ug/ml)

CC(C)[C@H]1C(=O)N[C@@H](CCCNC(=N)N)C(=O)NCC(=O)N[C@@H](CC(=O)O)C(=O)N[C@H](Cc2ccccc2)C(=O)N1C [cilengitide, Cyclo(L-arginylglycyl-L-α-aspartyl-D-phenylalanyl-N-methyl-L-valyl), reference compound]
growth inhibitory effect (cell viability) [1, 5]: exhibited
growth inhibitory effect (cell viability) [2, 5]: exhibited

NC1(c2ccc(-c3nc4ccn5c(=O)[nH]nc5c4cc3-c3ccccc3)cc2)CCC1 [MK-2206, 8-(4-(1-aminocyclobutyl)phenyl)-9-phenyl-[1,2,4]triazolo[3,4-f][1,6]naphthyridin-3(2H)-one, reference compound]
cancer cell growth inhibitory efficacy (cell viability) ([1]; MK-2206 10 uM co-treated with L3-1Y/IgG2 (1/5 dilutions from 2 ug/ml)): exhibited
growth inhibitory effect (cell viability) ([2]; MK-2206 5 uM co-treated with L3-1Y/IgG2 (1/5 dilutions from 2 ug/ml)): exhibited

CC1(C)CCC(c2ccc(Cl)cc2)=C(CN2CCN(c3ccc(C(=O)NS(=O)(=O)c4ccc(N[C@H](CCN5CCOCC5)CSc5ccccc5)c(S(=O)(=O)C(F)(F)F)c4)cc3)CC2)C1 [ABT-263, 4-[4-[[2-(4-Chlorophenyl)-5,5-dimethyl-1-cyclohexen-1-yl]methyl]-1-piperazinyl]-N-[[4-[[(1R)-3-(4-morpholinyl)-1-[(phenylthio)methyl]propyl]amino]-3-[(trifluoromethyl)sulfonyl]phenyl]sulfonyl]benzamide]
cancer cell growth inhibitory effect (cell viability) [3]: can be achieved
growth inhibitory effect (cell viability) [4]: increased compared to the case that the L3-1Y/IgG2 antibody was treated alone
cancer cell growth inhibitory effect (cell viability) ([2]; ABT-263 2.5 uM co-treated with L3-1Y/IgG2 (1/5 dilutions from 2 ug/ml)): can be achieved

B1: scFv of huAbF46: scFv of huAbF46, VH-linker-VL, encoded by SEQ ID NO: 55 (protein)
scFv: EVQLVESGGGLVQPGGSLRLSCAASGFTFTDYYMSWVRQAPGKGLEWLGFIRNKANGYTTEYSASVKGRFTISRDNSKNTLYLQMNSLRAEDTAVYYCARDNWFAYWGQGTLVTVSSGLGGLGGGGSGGGGSGGSSGVGSDIQMTQSPSSLSASVGDRVTITCKSSQSLLASGNQNNYLAWHQQKPGKAPKMLIIWASTRVSGVPSRFSGSGSGTDFTLTISSLQPEDFATYYCQQSYSAPLTFGQGTKVEIKR
specificity to c-Met (c-Met): specificity to c-Met
